Measurements: the NIST ThermoML archive (doi:10.1016/j.jct.2006.08.011)
Numbers after ± are expanded uncertainties.

Experiments:
[1] = 298.15 K; 101.33 kPa; Liquid
[2] = refractive index (Na D-line) (dimensionless); details: 298.15 K; 101.33 kPa; Liquid; Standard Abbe refractometry
[3] = excess molar enthalpy (molar enthalpy of mixing); xn = mol fraction of the nth substance listed; details: 298.15 K, 101 kPa, Liquid
[4] = xn = mol fraction of the nth substance listed; details: 298.15 K, Liquid
[5] = refractive index (Na D-line) (dimensionless); xn = mol fraction of the nth substance listed; details: 298.15 K, 101.3 kPa, Liquid, Standard Abbe refractometry

SMILES: Cc1ccccc1 [toluene]
- mass density [1]: 862.11 ± 0.18 kg/m3
- refractive index [2]: 1.4941 ± 0.0004

SMILES: CCCCCC [hexane] + Cc1ccccc1
- excess molar enthalpy ([3]; x1 = 0.0525): 0.0294 ± 0.000956 kcal/mol
- excess molar enthalpy ([3]; x1 = 0.0957): 0.0507 ± 0.00146 kcal/mol
- excess molar enthalpy ([3]; x1 = 0.1586): 0.0756 ± 0.00206 kcal/mol
- excess molar enthalpy ([3]; x1 = 0.2119): 0.0935 ± 0.00263 kcal/mol
- excess molar enthalpy ([3]; x1 = 0.2672): 0.109 ± 0.00287 kcal/mol
- excess molar enthalpy ([3]; x1 = 0.3135): 0.118 ± 0.00311 kcal/mol
- excess molar enthalpy ([3]; x1 = 0.3766): 0.126 ± 0.00335 kcal/mol
- excess molar enthalpy ([3]; x1 = 0.4264): 0.13 ± 0.00335 kcal/mol
- excess molar enthalpy ([3]; x1 = 0.4723): 0.131 ± 0.00335 kcal/mol
- excess molar enthalpy ([3]; x1 = 0.5414): 0.128 ± 0.00335 kcal/mol
- excess molar enthalpy ([3]; x1 = 0.6641): 0.115 ± 0.00311 kcal/mol
- excess molar enthalpy ([3]; x1 = 0.6927): 0.109 ± 0.00287 kcal/mol
- excess molar enthalpy ([3]; x1 = 0.7484): 0.0939 ± 0.00263 kcal/mol
- excess molar enthalpy ([3]; x1 = 0.8045): 0.0779 ± 0.00213 kcal/mol
- excess molar enthalpy ([3]; x1 = 0.8657): 0.0576 ± 0.00163 kcal/mol
- excess molar enthalpy ([3]; x1 = 0.9023): 0.0438 ± 0.00129 kcal/mol
- mass density ([4]; 101 kPa, x1 = 0.0524): 848.99 ± 0.37 kg/m3
- mass density ([4]; 101 kPa, x1 = 0.0926): 839.12 ± 0.39 kg/m3
- mass density ([4]; 101 kPa, x1 = 0.1636): 822.1 ± 0.41 kg/m3
- mass density ([4]; 101 kPa, x1 = 0.2011): 813.3 ± 0.43 kg/m3
- mass density ([4]; 101 kPa, x1 = 0.2475): 802.64 ± 0.45 kg/m3
- mass density ([4]; 101 kPa, x1 = 0.3184): 786.7 ± 0.48 kg/m3
- mass density ([4]; 101 kPa, x1 = 0.4088): 767.06 ± 0.51 kg/m3
- mass density ([4]; 101 kPa, x1 = 0.4739): 753.36 ± 0.53 kg/m3
- mass density ([4]; 101 kPa, x1 = 0.5096): 746 ± 0.55 kg/m3
- mass density ([4]; 101 kPa, x1 = 0.5734): 733.08 ± 0.56 kg/m3
- mass density ([4]; 101 kPa, x1 = 0.6086): 726.13 ± 0.57 kg/m3
- mass density ([4]; 101 kPa, x1 = 0.6754): 713.16 ± 0.59 kg/m3
- mass density ([4]; 101 kPa, x1 = 0.7338): 702.09 ± 0.61 kg/m3
- mass density ([4]; 101 kPa, x1 = 0.7827): 693.01 ± 0.62 kg/m3
- mass density ([4]; 101 kPa, x1 = 0.8426): 682.13 ± 0.64 kg/m3
- mass density ([4]; 101 kPa, x1 = 0.9055): 670.97 ± 0.66 kg/m3
- mass density ([4]; 101 kPa, x1 = 0.9323): 666.29 ± 0.67 kg/m3
- refractive index ([5]; x1 = 0.0543): 1.486 ± 0.0007
- refractive index ([5]; x1 = 0.0958): 1.4801 ± 0.0007
- refractive index ([5]; x1 = 0.1667): 1.4701 ± 0.0007
- refractive index ([5]; x1 = 0.2129): 1.4637 ± 0.0007
- refractive index ([5]; x1 = 0.2818): 1.4541 ± 0.0007
- refractive index ([5]; x1 = 0.3261): 1.4482 ± 0.0007
- refractive index ([5]; x1 = 0.3762): 1.4417 ± 0.0007
- refractive index ([5]; x1 = 0.4262): 1.4353 ± 0.0007
- refractive index ([5]; x1 = 0.4769): 1.429 ± 0.0007
- refractive index ([5]; x1 = 0.5136): 1.4246 ± 0.0007
- refractive index ([5]; x1 = 0.5742): 1.4174 ± 0.0007
- refractive index ([5]; x1 = 0.6327): 1.4107 ± 0.0007
- refractive index ([5]; x1 = 0.6862): 1.4047 ± 0.0007
- refractive index ([5]; x1 = 0.7402): 1.3987 ± 0.0007
- refractive index ([5]; x1 = 0.7958): 1.3927 ± 0.0007
- refractive index ([5]; x1 = 0.8548): 1.3866 ± 0.0007
- refractive index ([5]; x1 = 0.9106): 1.381 ± 0.0007
- refractive index ([5]; x1 = 0.9409): 1.378 ± 0.0007

SMILES: CCCOC(=O)CC [propyl propanoate] + Cc1ccccc1
- excess molar enthalpy ([3]; x1 = 0.0547): -0.0102 ± 0.00105 kcal/mol
- excess molar enthalpy ([3]; x1 = 0.1357): -0.0223 ± 0.00143 kcal/mol
- excess molar enthalpy ([3]; x1 = 0.1718): -0.0263 ± 0.00155 kcal/mol
- excess molar enthalpy ([3]; x1 = 0.2389): -0.0336 ± 0.00177 kcal/mol
- excess molar enthalpy ([3]; x1 = 0.2823): -0.0365 ± 0.00186 kcal/mol
- excess molar enthalpy ([3]; x1 = 0.3263): -0.0399 ± 0.00198 kcal/mol
- excess molar enthalpy ([3]; x1 = 0.3957): -0.0421 ± 0.00206 kcal/mol
- excess molar enthalpy ([3]; x1 = 0.4277): -0.0421 ± 0.00206 kcal/mol
- excess molar enthalpy ([3]; x1 = 0.5486): -0.0378 ± 0.00191 kcal/mol
- excess molar enthalpy ([3]; x1 = 0.5841): -0.0361 ± 0.00186 kcal/mol
- excess molar enthalpy ([3]; x1 = 0.6522): -0.0328 ± 0.00177 kcal/mol
- excess molar enthalpy ([3]; x1 = 0.709): -0.0293 ± 0.00165 kcal/mol
- excess molar enthalpy ([3]; x1 = 0.7394): -0.0271 ± 0.00158 kcal/mol
- excess molar enthalpy ([3]; x1 = 0.8031): -0.0228 ± 0.00146 kcal/mol
- excess molar enthalpy ([3]; x1 = 0.8568): -0.0183 ± 0.00131 kcal/mol
- excess molar enthalpy ([3]; x1 = 0.892): -0.0131 ± 0.00115 kcal/mol
- excess molar enthalpy ([3]; x1 = 0.9577): -0.00583 ± 0.000932 kcal/mol
- mass density ([4]; 101.3 kPa, x1 = 0.0625): 863.5 ± 0.35 kg/m3
- mass density ([4]; 101.3 kPa, x1 = 0.1072): 864.46 ± 0.35 kg/m3
- mass density ([4]; 101.3 kPa, x1 = 0.1826): 865.94 ± 0.35 kg/m3
- mass density ([4]; 101.3 kPa, x1 = 0.2232): 866.69 ± 0.36 kg/m3
- mass density ([4]; 101.3 kPa, x1 = 0.2747): 867.57 ± 0.36 kg/m3
- mass density ([4]; 101.3 kPa, x1 = 0.3426): 868.66 ± 0.37 kg/m3
- mass density ([4]; 101.3 kPa, x1 = 0.4514): 870.21 ± 0.38 kg/m3
- mass density ([4]; 101.3 kPa, x1 = 0.4907): 870.73 ± 0.38 kg/m3
- mass density ([4]; 101.3 kPa, x1 = 0.5441): 871.41 ± 0.39 kg/m3
- mass density ([4]; 101.3 kPa, x1 = 0.5833): 871.86 ± 0.39 kg/m3
- mass density ([4]; 101.3 kPa, x1 = 0.6451): 872.53 ± 0.4 kg/m3
- mass density ([4]; 101.3 kPa, x1 = 0.7066): 873.14 ± 0.41 kg/m3
- mass density ([4]; 101.3 kPa, x1 = 0.7346): 873.41 ± 0.42 kg/m3
- mass density ([4]; 101.3 kPa, x1 = 0.7898): 873.9 ± 0.43 kg/m3
- mass density ([4]; 101.3 kPa, x1 = 0.8508): 874.42 ± 0.44 kg/m3
- mass density ([4]; 101.3 kPa, x1 = 0.9037): 874.81 ± 0.45 kg/m3
- mass density ([4]; 101.3 kPa, x1 = 0.956): 875.2 ± 0.46 kg/m3
- refractive index ([5]; x1 = 0.0625): 1.4858 ± 0.0007
- refractive index ([5]; x1 = 0.1072): 1.4803 ± 0.0007
- refractive index ([5]; x1 = 0.1826): 1.4712 ± 0.0007
- refractive index ([5]; x1 = 0.2232): 1.4665 ± 0.0007
- refractive index ([5]; x1 = 0.2747): 1.4605 ± 0.0007
- refractive index ([5]; x1 = 0.3426): 1.4529 ± 0.0007
- refractive index ([5]; x1 = 0.4514): 1.4411 ± 0.0007
- refractive index ([5]; x1 = 0.4907): 1.437 ± 0.0007
- refractive index ([5]; x1 = 0.5441): 1.4316 ± 0.0007
- refractive index ([5]; x1 = 0.5833): 1.4277 ± 0.0007
- refractive index ([5]; x1 = 0.6451): 1.4218 ± 0.0007
- refractive index ([5]; x1 = 0.7066): 1.416 ± 0.0007
- refractive index ([5]; x1 = 0.7346): 1.4135 ± 0.0007
- refractive index ([5]; x1 = 0.7898): 1.4085 ± 0.0007
- refractive index ([5]; x1 = 0.8508): 1.4031 ± 0.0007
- refractive index ([5]; x1 = 0.9037): 1.3986 ± 0.0007
- refractive index ([5]; x1 = 0.956): 1.3942 ± 0.0007

SMILES: CCCOC(=O)CC [propyl propanoate]
- mass density [1]: 875.48 ± 0.64 kg/m3
- refractive index [2]: 1.3906 ± 0.0004

SMILES: CCCCCC [hexane]
- mass density [1]: 654.68 ± 0.7 kg/m3
- refractive index [2]: 1.3723 ± 0.0004
